Data as given in patent US7135466B2 (Kirin Beer Kabushiki Kaisha, priority 1999, dated 2006).
Read-outs that look alike come from different tables or passages of the source.

Columns and labels:
c-kit = molecular target: T1, c-kit (Homo sapiens, UniProt P10721); test: Inhibitory activity against c-kit autophosphorylation (MO7e cells, h-SCF); assay type: cell-based; details: for IC50: MO7e cells, read-out: c-kit IC50; for inhibition at 1 µM: Mo7e, figure within parentheses in −( ) or >1000( ), at 1000 nM
T1 construct: MO7e (human megakaryocytic leukemia cell line) which had been arrested for 20 hr; endogenous in cells; host or cells: MO7e human megakaryocytic leukemia cell line
T1 sequence (P10721 26-976): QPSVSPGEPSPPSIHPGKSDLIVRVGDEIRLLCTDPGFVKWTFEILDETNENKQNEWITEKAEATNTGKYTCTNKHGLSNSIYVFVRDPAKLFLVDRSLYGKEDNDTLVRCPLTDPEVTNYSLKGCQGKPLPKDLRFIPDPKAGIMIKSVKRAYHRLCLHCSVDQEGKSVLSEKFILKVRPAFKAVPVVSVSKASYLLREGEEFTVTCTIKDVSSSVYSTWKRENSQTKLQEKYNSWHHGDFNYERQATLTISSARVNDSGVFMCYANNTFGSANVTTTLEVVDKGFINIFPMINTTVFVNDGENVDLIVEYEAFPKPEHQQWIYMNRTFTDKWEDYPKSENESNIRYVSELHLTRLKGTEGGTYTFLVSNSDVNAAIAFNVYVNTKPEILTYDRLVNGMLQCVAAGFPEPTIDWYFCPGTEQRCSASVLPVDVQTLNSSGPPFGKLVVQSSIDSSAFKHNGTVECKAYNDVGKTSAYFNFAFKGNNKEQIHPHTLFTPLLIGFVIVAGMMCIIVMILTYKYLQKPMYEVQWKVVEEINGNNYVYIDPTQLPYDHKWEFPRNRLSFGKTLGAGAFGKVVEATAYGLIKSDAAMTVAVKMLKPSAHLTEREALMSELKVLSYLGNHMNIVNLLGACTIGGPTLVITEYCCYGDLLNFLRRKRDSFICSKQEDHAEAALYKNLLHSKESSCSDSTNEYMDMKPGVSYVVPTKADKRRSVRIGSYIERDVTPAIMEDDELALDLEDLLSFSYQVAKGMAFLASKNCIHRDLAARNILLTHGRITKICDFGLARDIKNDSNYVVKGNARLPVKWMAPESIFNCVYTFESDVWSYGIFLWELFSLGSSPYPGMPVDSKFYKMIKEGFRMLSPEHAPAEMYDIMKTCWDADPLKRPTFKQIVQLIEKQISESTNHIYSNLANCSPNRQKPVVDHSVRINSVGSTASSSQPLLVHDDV
Procedure, shortened: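 Ligand-induced c-kit tyrosine phosphorylation is measured in MO7e cells that were quiesced 20 hr and preincubated with compound for 1 hr prior to a 5 min pulse of 50 ng/ml human SCF. Phospho-c-kit is detected by anti-phosphotyrosine capture ELISA, A450.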

PDGF-Ra = molecular target: T2, PDGF-Ra (Homo sapiens, UniProt P16234); test: Inhibitory activity against PDGF-Ra phosphorylation by PDGF-AA stimulation using G292; assay type: cell-based; details: for IC50: > means inhibition at indicated concentration not more than 50%, < and << not less than 50%, read-out: PDGF (E) IC50; for inhibition at 0.1 µM: G292, figure within parentheses in >100( ), at 100 nM, read-out: PDGF (E) inhibition (%) at 100 nM
T2 construct: host or cells: G-292 human osteosarcoma cells
T2 sequence (P16234 24-1089): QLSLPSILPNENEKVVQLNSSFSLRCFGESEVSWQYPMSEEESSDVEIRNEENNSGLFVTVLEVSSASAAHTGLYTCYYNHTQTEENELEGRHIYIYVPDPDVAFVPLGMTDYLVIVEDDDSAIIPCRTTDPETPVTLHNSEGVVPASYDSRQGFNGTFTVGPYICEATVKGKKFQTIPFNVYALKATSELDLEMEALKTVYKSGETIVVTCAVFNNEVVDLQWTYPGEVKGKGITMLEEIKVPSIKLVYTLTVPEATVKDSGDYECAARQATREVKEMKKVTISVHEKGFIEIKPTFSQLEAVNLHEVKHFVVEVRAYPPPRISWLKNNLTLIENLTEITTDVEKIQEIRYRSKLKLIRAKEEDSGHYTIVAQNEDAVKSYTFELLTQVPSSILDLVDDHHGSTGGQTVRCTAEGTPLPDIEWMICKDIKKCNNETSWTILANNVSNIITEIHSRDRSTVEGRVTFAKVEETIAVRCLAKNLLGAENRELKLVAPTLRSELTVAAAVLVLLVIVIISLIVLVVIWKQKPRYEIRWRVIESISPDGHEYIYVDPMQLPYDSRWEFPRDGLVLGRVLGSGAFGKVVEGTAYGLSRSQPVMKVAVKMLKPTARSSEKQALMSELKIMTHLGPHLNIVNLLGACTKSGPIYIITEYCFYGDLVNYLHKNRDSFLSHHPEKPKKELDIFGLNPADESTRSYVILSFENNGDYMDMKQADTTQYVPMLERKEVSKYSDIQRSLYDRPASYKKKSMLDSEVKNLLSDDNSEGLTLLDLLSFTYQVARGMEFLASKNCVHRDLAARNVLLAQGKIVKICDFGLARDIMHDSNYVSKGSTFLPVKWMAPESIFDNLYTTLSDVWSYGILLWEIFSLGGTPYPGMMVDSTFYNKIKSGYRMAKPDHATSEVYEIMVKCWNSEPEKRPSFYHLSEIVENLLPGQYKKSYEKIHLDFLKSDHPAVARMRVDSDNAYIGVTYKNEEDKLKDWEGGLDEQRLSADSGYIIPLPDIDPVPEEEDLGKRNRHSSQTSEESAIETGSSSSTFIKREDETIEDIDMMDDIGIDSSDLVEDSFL
Procedure, shortened: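 Read-out: A450 from a sandwich ELISA (PY-20 capture, anti-PDGF-Ra detection, peroxidase colour) of lysates from G-292 cells given compound for 1 hr at 37 °C before a 5 min challenge with PDGF-AA at 50 ng/ml.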

Molecule	IC50 (c-kit; 50 ng/ml h-SCF) [µM]	IC50 (PDGF-Ra) [µM]	IC50 (c-kit; h-SCF 50 ng/ml) [µM]	IC50 (PDGF-Ra; Pharmacological Test Example 1) [µM]	other results
CCCCC(=O)NC(=S)Nc1ccc(Oc2ccnc3cc(OC)c(OC)cc23)c(Cl)c1 [Example 719, N-{3-Chloro-4-[(6,7-dimethoxy-4-quinolyl)oxy]phenyl}-N′-pentanoylthiourea]	0.431	0.014			
COc1cc2ncnc(Oc3ccc(NC(=O)OCCOc4cccc(F)c4)cc3)c2cc1OC [Example 210, 2-(3-Fluorophenoxy)ethyl N-{4-[(6,7-dimethoxy-4-quinazolinyl)oxy]phenyl}carbamate]			0.095	0.016	
COc1cc2nccc(Oc3ccc(NC(=O)OCCCOc4ccc(Cl)cc4)cc3)c2cc1OC [Example 27, 3-(4-Chlorophenoxy)propyl N-{4-[(6,7-dimethoxy-4-quinolyl)oxy]phenyl}carbamate]			0.076	< 0.01	
COc1cc2nccc(Oc3cc(C)c(NC(=O)OCC4CCCCCC4)cc3C)c2cc1OC [Example 349, Cycloheptylmethyl N-{4-[(6,7-dimethoxy-4-quinolyl)oxy]-2,5-dimethylphenyl}carbamate]			0.309	0.012	
CCN(CC)CCCOC(=O)Nc1cc(C)c(Oc2ccnc3cc(OC)c(OC)cc23)cc1C [Example 427, 3-(Diethylamino)propyl N-{4-[(6,7-dimethoxy-4-quinolyl)oxy]-2,5-dimethylphenyl}carbamate]	0.364	> 0.1			inhibition at 0.1 µM (PDGF-Ra): 13%
COc1cc2nccc(Oc3ccc(NC(=O)OCc4ccccc4C)c(C)c3C)c2cc1OC [Example 232, 2-Methylbenzyl N-{4-[(6,7-dimethoxy-4-quinolyl)oxy]-2,3-dimethylphenyl}carbamate]			0.042	0.011	
CCCCCCOC(=O)Nc1ccc(Oc2ccnc3cc(OC)c(OC)cc23)cc1 [Example 256, Hexyl N-{4-[(6,7-dimethoxy-4-quinolyl)oxy]phenyl}carbamate]			0.015	< 0.003	
COc1ccc(C(C)OC(=O)Nc2ccc(Oc3ccnc4cc(OC)c(OC)cc34)cc2)cc1 (stereo not shown) [Example 32, 1-(4-Methoxyphenyl)ethyl N-{4-[(6,7-dimethoxy-4-quinolyl)oxy]phenyl}carbamate]			0.227	0.016	
COc1cc2nccc(Oc3ccc(NC(=O)OCCCc4ccccc4)c(C)c3C)c2cc1OC [Example 378, 3-Phenylpropyl N-{4-[(6,7-dimethoxy-4-quinolyl)oxy]-2,3-dimethylphenyl}carbamate]			0.092	0.014	
CCC(CC)OC(=O)Nc1ccc(Oc2ccnc3cc(OC)c(OC)cc23)c(C)c1C [Example 360, 1-Ethylpropyl N-{4-[(6,7-dimethoxy-4-quinolyl)oxy]-2,3-dimethylphenyl}carbamate]			0.189	0.016	
CCCCN(CCCC)CCNC(=O)Nc1cc(C)c(Oc2ccnc3cc(OC)c(OC)cc23)cc1C [Example 683, N-[2-(Dibutylamino)ethyl]-N′-{4-[(6,7-dimethoxy-4-quinolyl)oxy]-2,5-dimethylphenyl}urea]		> 0.1			inhibition at 1 µM (c-kit): 26%; inhibition at 0.1 µM (PDGF-Ra): 40%
COc1cc2ncnc(Oc3ccc(NC(=O)OCc4ccc(F)cc4)cc3)c2cc1OC [Example 11, 4-Fluorobenzyl N-{4-[(6,7-dimethoxy-4-quinazolinyl)oxy]phenyl}carbamate]			0.036	< 0.01	
CCN(CC)CCNC(=O)Nc1ccc(Oc2ncnc3cc(OC)c(OC)cc23)cc1Cl [Example 645, N-{2-Chloro-4-[(6,7-dimethoxy-4-quinazolinyl)oxy]phenyl}-N′-[2-(diethylamino)ethyl]urea]		0.023			inhibition at 1 µM (c-kit): 32%
CCCC(CCN1CCOCC1)OC(=O)Nc1ccc(Oc2ncnc3cc(OC)c(OC)cc23)cc1 (stereo not shown) [Example 440]	0.351	0.047			
3-[(4-Methylphenyl)sulfanyl]ethyl N-{4-[(6,7-dimethoxy-4-quinolyl)oxy]-2,5-dimethylphenyl}carbamate [Example 139]			0.08	0.057	
COc1cc2ncnc(Oc3ccc(NC(=S)NCCN(C(C)C)C(C)C)cc3)c2cc1OC [Example 535, N-{4-[(6,7-Dimethoxy-4-quinazolinyl)oxy]phenyl}-N′-(2-diisopropylaminoethyl)thiourea]		0.032			inhibition at 1 µM (c-kit): 27%
C=C(C)COC(=O)Nc1cc(C)c(Oc2ccnc3cc(OC)c(OC)cc23)cc1C [Example 405, 2-Methylallyl N-{4-[(6,7-dimethoxy-4-quinolyl)oxy]-2,5-dimethylphenyl}carbamate]	0.126	0.046			
C=C(C)COC(=O)Nc1ccc(Oc2ncnc3cc(OC)c(OC)cc23)cc1 [Example 407, 2-Methylallyl N-{4-[(6,7-dimethoxy-4-quinazolinyl)oxy]phenyl}carbamate]	0.068	0.026			
CCC(CC)OC(=O)Nc1ccc(Oc2ncnc3cc(OC)c(OC)cc23)cc1 [Example 361, 1-Ethylpropyl N-{4-[(6,7-dimethoxy-4-quinazolinyl)oxy]phenyl}carbamate]			0.278	< 0.01	

Second part, led by results:

IC50 (c-kit; 50 ng/ml h-SCF) [µM]	IC50 (PDGF-Ra) [µM]	IC50 (c-kit; h-SCF 50 ng/ml) [µM]	IC50 (PDGF-Ra; Pharmacological Test Example 1) [µM]	Molecule	other results
0.03	0.042			CCCCC(=O)NC(=S)Nc1ccc(Oc2ncnc3cc(OC)c(OC)cc23)cc1 [Example 720, N-{4-[(6,7-Dimethoxy-4-quinazolinyl)oxy]phenyl}-N′-pentanoylthiourea]	
	0.014			COc1cc2nccc(Oc3ccc(NC(=S)NC(=O)CCC4CCCC4)cc3Cl)c2cc1OC [Example 1030, N-{3-Chloro-4-[(6,7-dimethoxy-4-quinolyl)oxy]phenyl}-N′-(3-cyclopentylpropanoyl)thiourea]	IC50 (c-kit; h-SCF stimulation): 0.337 µM
	< 0.01			COc1cc2ncnc(Oc3ccc(OCC(=O)N4CCc5ccccc5C4)cc3)c2cc1OC [Example 802, 2-{4-[(6,7-Dimethoxy-4-quinazolinyl)oxy]phenoxy}-1-(1,2,3,4-tetrahydro-2-isoquinolyl)-1-ethanone]	inhibition at 1 µM (c-kit): 42%
	0.043			CCN(C(=S)NC(=O)Cc1ccccc1)c1ccc(Oc2ccnc3cc(OC)c(OC)cc23)cc1 [Example 1149, N-{4-[(6,7-Dimethoxy-4-quinolyl)oxy]phenyl}-N-ethyl-N′-(2-phenylacetyl)thiourea]	IC50 (c-kit; h-SCF stimulation): 0.15 µM
	0.022			COc1cc2nccc(Oc3ccc(NC(=S)NC(=O)CC4CCCCC4)cc3)c2cc1OC [Example 1023, N-(2-Cyclohexylacetyl)-N′-{4-[(6,7-dimethoxy-4-quinolyl)oxy]phenyl}thiourea]	IC50 (c-kit; h-SCF stimulation): 0.116 µM
0.234	< 0.01			COc1cc2nccc(Oc3ccc(NC(=S)NC(=O)COc4ccccc4C)cc3)c2cc1OC [Example 739, N-{4-[(6,7-Dimethoxy-4-quinolyl)oxy]phenyl}-N′-[2-(2-methylphenoxy)acetyl]thiourea]	
0.403	0.027			COc1cc2nccc(Oc3ccc(OCCCOc4cccc(F)c4)cc3)c2cc1OC [Example 797, 4-{4-[3-(3-Fluorophenoxy)propoxy]phenoxy}-6,7-dimethoxyquinoline]	
0.301	0.006			COc1cc2nccc(Oc3ccc(OCCCOc4ccccc4C)cc3)c2cc1OC [Example 792, 6,7-Dimethoxy-4-{4-[3-(2-methylphenoxy)propoxy]phenoxy}quinoline]	
	< 0.01			COc1cc2nccc(Oc3ccc(NC(=S)NC(=O)c4ccc(C)cc4)cc3)c2cc1OC [Example 959, N-{4-[(6,7-Dimethoxy-4-quinolyl)oxy]phenyl}-N′-(4-methylbenzoyl)thiourea]	IC50 (c-kit; h-SCF stimulation): 0.3 µM
